Data published in ChEMBL document CHEMBL5390216, “Development of small molecule inhibitors of natural killer group 2D receptor (NKG2D)” (Bioorg Med Chem Lett, 2023).

What was measured:
NKGD2-MICA = target: T1, NKGD2-MICA (Homo sapiens, UniProt P26718); assay: Inhibition of NKG2D (unknown origin)/MICA (unknown origin) protein-protein interaction by cell-based TR-FRET assay
T1 sequence (P26718 whole entry): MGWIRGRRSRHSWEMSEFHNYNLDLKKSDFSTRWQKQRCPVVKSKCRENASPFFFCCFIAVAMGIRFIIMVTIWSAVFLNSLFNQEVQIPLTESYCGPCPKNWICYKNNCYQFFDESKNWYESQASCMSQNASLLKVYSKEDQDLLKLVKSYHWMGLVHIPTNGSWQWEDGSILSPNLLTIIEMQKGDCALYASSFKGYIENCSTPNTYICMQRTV
T1 sequence (Q29983 whole entry): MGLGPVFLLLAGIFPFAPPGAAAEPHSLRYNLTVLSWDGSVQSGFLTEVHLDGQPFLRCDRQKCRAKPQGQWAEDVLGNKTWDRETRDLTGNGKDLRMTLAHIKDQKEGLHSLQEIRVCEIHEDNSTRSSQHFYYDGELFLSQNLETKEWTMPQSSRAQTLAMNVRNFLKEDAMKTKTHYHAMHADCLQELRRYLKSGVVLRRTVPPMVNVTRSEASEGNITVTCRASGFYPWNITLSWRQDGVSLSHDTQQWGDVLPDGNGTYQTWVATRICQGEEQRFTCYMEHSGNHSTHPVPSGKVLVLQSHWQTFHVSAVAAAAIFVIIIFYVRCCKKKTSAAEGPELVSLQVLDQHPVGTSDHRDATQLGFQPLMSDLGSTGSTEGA

NKGD2-ULBP6 = target: T2, NKGD2-ULBP6 (Homo sapiens, UniProt P26718); assay: Inhibition of NKG2D (unknown origin)/ULBP6 (unknown origin) protein-protein interaction by cell-based TR-FRET assay
T2 sequence (P26718 whole entry): T1 sequence (P26718 whole entry)
T2 sequence (Q5VY80 whole entry): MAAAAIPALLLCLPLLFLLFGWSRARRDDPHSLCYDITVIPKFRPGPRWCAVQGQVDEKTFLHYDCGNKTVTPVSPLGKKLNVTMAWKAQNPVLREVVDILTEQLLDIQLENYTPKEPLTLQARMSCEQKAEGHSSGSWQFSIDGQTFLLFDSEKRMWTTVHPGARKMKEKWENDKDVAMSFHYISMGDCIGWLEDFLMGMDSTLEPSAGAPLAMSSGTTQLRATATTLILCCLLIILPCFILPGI

| Compound | IC50 (NKGD2-MICA) [µM] | IC50 (NKGD2-ULBP6) [µM] |
| --- | --- | --- |
| CN(C)C(=O)[C@@H](NC(=O)c1ccccc1-c1ccc(C(F)(F)F)cc1)c1cccc(C(F)(F)F)c1 | 1.2 | 2.7 |
| CN(C)C(=O)C(NC(=O)c1ccccc1-c1ccc(C(F)(F)F)cc1)c1cccc(C(F)(F)F)c1 (racemic) | 2.2 | 5 |
| CN(C)C(=O)C(NS(=O)(=O)c1ccccc1-c1ccc(C(F)(F)F)cc1)c1cccc(C(F)(F)F)c1 (stereo unspecified) | > 20 | > 20 |
| O=C(N[C@H](C(=O)N1C[C@@H]2[C@H](CO)[C@@H]2C1)c1cccc(C(F)(F)F)c1)c1ccccc1-c1ccc(C(F)(F)F)cc1 | 1.6 | 3.1 |
| Cc1ccc([C@H](NC(=O)c2cnccc2-c2ccc(C(F)(F)F)cc2)C(=O)N(C)C)cc1C(F)(F)F | 0.3 | 0.8 |
| O=C(NCc1cccc(C(F)(F)F)c1)c1ccccc1-c1ccc(C(F)(F)F)cc1 | > 20 | > 20 |
| CN(C)C(=O)C(NC(=O)c1ccccc1-c1ccccc1)c1cccc(C(F)(F)F)c1 (stereo unspecified) | > 20 | > 20 |
| CN(C)C(=O)[C@@H](NC(=O)c1cc(-c2nnnn2C)ccc1-c1ccc(C(F)(F)F)cc1)c1cccc(C(F)(F)F)c1 | 0.9 | 2.4 |
| CN(C)C(=O)[C@@H](NC(=O)c1ncccc1-c1ccc(C(F)(F)F)cc1)c1cccc(C(F)(F)F)c1 | 1 | 3.8 |
| CN(C)C(=O)[C@@H](NC(=O)c1ccncc1-c1ccc(C(F)(F)F)cc1)c1cccc(C(F)(F)F)c1 | 1.6 | 4.8 |
| CN(C)C(=O)[C@@H](NC(=O)c1ccccc1-c1ccc(C(F)(F)F)cc1)c1ccccc1 (racemic) | > 20 | > 20 |
| CN(C)C(=O)[C@@H](NC(=O)c1cnccc1-c1ccc(C(F)(F)F)cc1)c1ccc(Cl)c(C(F)(F)F)c1 | 0.1 | 0.3 |
| O=C(NC(C(=O)N1CCC[C@H]1CO)c1cccc(C(F)(F)F)c1)c1ccccc1-c1ccc(C(F)(F)F)cc1 (stereo partly specified) | 14.5 | > 20 |
| CN(C)C(=O)[C@@H](NC(=O)c1cc(C(=O)NS(C)(=O)=O)ccc1-c1ccc(C(F)(F)F)cc1)c1cccc(C(F)(F)F)c1 | 0.7 | 1.7 |
| CN(C)C(=O)[C@@H](NC(=O)c1cnccc1-c1ccc(C(F)(F)F)cc1)c1cc(Cl)cc(C(F)(F)F)c1 | 0.1 | 0.2 |
| Cc1n[nH]c(C)c1-c1ccc(-c2ccc(C(F)(F)F)cc2)c(C(=O)N[C@H](C(=O)N(C)C)c2cccc(C(F)(F)F)c2)c1 | 0.4 | 0.6 |
| CN(C)C(=O)C(C)(NC(=O)c1ccccc1-c1ccc(C(F)(F)F)cc1)c1cccc(C(F)(F)F)c1 (stereo unspecified) | > 20 | > 20 |
| CN(C)C(=O)[C@@H](NC(=O)c1cnccc1-c1ccc(C(F)(F)F)cc1)c1cc(F)cc(C(F)(F)F)c1 | 0.2 | 0.7 |
| Cc1cc([C@H](NC(=O)c2cnccc2-c2ccc(C(F)(F)F)cc2)C(=O)N(C)C)cc(C(F)(F)F)c1 | 0.1 | 0.4 |
| CC1(C)C[C@H](CO)N(C(=O)C(NC(=O)c2ccccc2-c2ccc(C(F)(F)F)cc2)c2cccc(C(F)(F)F)c2)C1 (stereo partly specified) | > 20 | > 20 |
| Cc1n[nH]cc1-c1ccc(-c2ccc(C(F)(F)F)cc2)c(C(=O)NC(C(=O)N(C)C)c2cccc(C(F)(F)F)c2)c1 (racemic) | 0.9 | 2.8 |
| CN(C)C(=O)C(NC(=O)c1cccc(-c2ccc(C(F)(F)F)cc2)c1)c1cccc(C(F)(F)F)c1 (stereo unspecified) | > 20 | > 20 |
| O=C(NC(C(=O)N1CCCC1)c1cccc(C(F)(F)F)c1)c1ccccc1-c1ccc(C(F)(F)F)cc1 (racemic) | 2.5 | 5.1 |

| Compound | IC50 (NKGD2-MICA) [µM] | IC50 (NKGD2-ULBP6) [µM] |
| --- | --- | --- |
| CN(C)C(=O)C(c1cccc(C(F)(F)F)c1)N(C)C(=O)c1ccccc1-c1ccc(C(F)(F)F)cc1 (stereo unspecified) | > 20 | > 20 |
| CN(C)C(=O)[C@@H](NC(=O)c1cnccc1-c1ccc(C(F)(F)F)cc1)c1cc(C(F)(F)F)cc(C(F)(F)F)c1 | 0.2 | 0.5 |
| O=C(N[C@H](C(=O)N1C[C@@H]2[C@@H](CO)[C@@H]2C1)c1cccc(C(F)(F)F)c1)c1ccccc1-c1ccc(C(F)(F)F)cc1 | 1.1 | 3.1 |
| CN(C)C(=O)[C@@H](NC(=O)c1cnccc1-c1ccc(C(F)(F)F)cc1)c1ccc(Cl)c(Cl)c1 | 0.2 | 0.4 |
| O=C(NC(C(=O)N1CC[C@H](CO)C1)c1cccc(C(F)(F)F)c1)c1ccccc1-c1ccc(C(F)(F)F)cc1 (stereo partly specified) | 10.5 | > 20 |
| CN(C)C(=O)[C@@H](NC(=O)c1ccccc1-c1ccc(C(F)(F)F)cc1)c1cccc(C2CC2)c1 | 1.8 | 4.2 |
| CN(C)C(=O)[C@@H](NC(=O)c1cc(-c2ccnn2C)ccc1-c1ccc(C(F)(F)F)cc1)c1cccc(C(F)(F)F)c1 | 0.3 | 0.7 |
| CN(C)C(=O)[C@@H](NC(=O)c1cnccc1-c1ccc(C(F)(F)F)cc1)c1ccc(F)c(C(F)(F)F)c1 | 0.2 | 0.4 |
| CN(C)C(=O)[C@@H](NC(=O)c1ccccc1-c1ccc(C(F)(F)F)cc1)c1ccc(Cl)c(C(F)(F)F)c1 | 0.5 |  |
| CN(C)C(=O)[C@@H](NC(=O)c1nnccc1-c1ccc(C(F)(F)F)cc1)c1cccc(C(F)(F)F)c1 | 0.4 | 1.5 |
| CN(C)C(=O)C(NC(=O)c1cc(-c2ccnn2C2COC2)ccc1-c1ccc(C(F)(F)F)cc1)c1cccc(C(F)(F)F)c1 (racemic) | 0.5 | 1.1 |
| O=C(NC(C(=O)N1CCC1)c1cccc(C(F)(F)F)c1)c1ccccc1-c1ccc(C(F)(F)F)cc1 (racemic) | 3.4 | 8.2 |
| CN(C)C(=O)C(NC(=O)c1cncnc1-c1ccc(C(F)(F)F)cc1)c1cccc(C(F)(F)F)c1 (racemic) | > 20 | > 20 |
| CN(C)C(=O)[C@@H](NC(=O)c1cnccc1-c1ccc(C(F)(F)F)cc1)c1cccc(C(F)(F)F)c1 | 0.4 | 1.4 |
| CN(C)C(=O)C(NC(=O)c1ccc(-c2ccc(C(F)(F)F)cc2)cc1)c1cccc(C(F)(F)F)c1 (stereo unspecified) | > 20 | > 20 |
| CN(C)C(=O)[C@@H](NC(=O)c1ccccc1-c1ccc(C(F)(F)F)cc1)c1cccc(N2CC(CC(F)(F)F)C2)c1 | 1.6 | 3.4 |
| O=C(NC(C(=O)N1CCC[C@@H]1CO)c1cccc(C(F)(F)F)c1)c1ccccc1-c1ccc(C(F)(F)F)cc1 (stereo partly specified) | 4 | 8.7 |
| CN(C)C(=O)C(NC(=O)c1ccccc1)c1cccc(C(F)(F)F)c1 (stereo unspecified) | > 20 | > 20 |
| CN(C)C(=O)[C@@H](NC(=O)c1cnccc1-c1ccc(C(F)(F)F)cc1)c1cc(Cl)c(Cl)c(C(F)(F)F)c1 | 0.1 | 0.2 |
| CN(C)C(=O)[C@@H](NC(=O)c1ccccc1-c1ccc(C(F)(F)F)cc1)c1ccc(Cl)cc1 | 3.3 | 5.8 |
| CN(C)C(=O)[C@@H](NC(=O)c1cc(-c2nnn[nH]2)ccc1-c1ccc(C(F)(F)F)cc1)c1cccc(C(F)(F)F)c1 | 0.5 | 1.5 |
| CN(C)C(=O)CNC(=O)c1ccccc1-c1ccc(C(F)(F)F)cc1 | > 20 | > 20 |
| CN(C)C(=O)C(NC(=O)c1cccnc1-c1ccc(C(F)(F)F)cc1)c1cccc(C(F)(F)F)c1 (racemic) | > 20 | > 20 |
